Results from patent US7812116B2, “Immunogenic peptides” (Rush University Medical Center, priority 2003, dated 2010).

Experiments:
HLA-A2.1 = HLA-A2.1 (Homo sapiens, UniProt P04439, D140Y/D185E/D98H/E176V/E277Q/G131W/G231S/I119V/I121R/I166T/I218V/L300P/L318F/N151K/N90K/P208A/P217A/Q86G/Q94H/R138H/R169H/T345S); experiment: Peptide/HLA-A2.1 complex stability on T2 cells under Brefeldin A treatment; format: binding
dendritic cells = experiment: Phenotypic analysis of mature dendritic (mDC) and T2 antigen-presenting cells; format: cell-based, human; details: DCs from CD14+ monocytes, maturation factor during last three days of culture
Method: Immature DCs can be generated according to modified protocols of Romani N, et al., J Exp Med 180, pp. 83-89, 1994; and Bakker et al., Cancer Res 55, pp. 5330-5334, 1995. Briefly, fresh or frozen/thawed CD14+cells are cultured in RPMI 1640 medium (Gibco-Life Technologies, Gaithersburg, Md.) supplemented with 10% FCS, 1,000 U/ml GM-CSF and 1,000 U/ml IL-4. The cell cultures are fed with fresh medium and GM-CSF and IL-4 every other day and cell differentiation is monitored by light microscopy. On day 7, the cultures are supplemented with different combinations of DC maturation factors such as lipopolysaccharide (100 U/ml), TNF-α (10 ng/ml), or IFN-α (1,000 U/ml) plus TNF-α (10 ng/ml). After three days of incubation, mature DCs (mDC) are harvested and their phenotypes are evaluated by flow cytometry. The maturation factor(s) yielding optimal DC maturation are determined and used to generate mDCs for peptide pulsing in upcoming studies. In this example, immature DCs obtained by the culture of CD14+monocytes with GM-CSF (1,000 U/ml) and IL-4 (1,000 U/ml) are induced to undergo maturation by incubation with LPS (100 Units/ml), TNF-α (10 ng/ml) or TNF-α (10 ng/ml)+IFN-γ (50 ng/ml) during the final three days of the culture period. […] HLA-DR and no expression of CD3 or CD14 (data not shown). The highest up-regulation of the co-immunostimulatory (CD80 and CD86) and HLA-A2.1 MHC class I molecules is detected on DCs treated with TNF-α+IFN-γ (Table 5). […] The phenotype of the T2 cell line is evaluated to determine its potential for use as an alternative type of antigen presenting cell. […] The expression of CD80 is higher on T2 cells compared to mDCs.

| Substance | HLA-A2.1 binding and stability in words (HLA-A2.1) | CD80 mean channel fluorescence (MCF) (dendritic cells) | CD86 mean channel fluorescence (MCF) (dendritic cells) | HLA-A2.1 mean channel fluorescence (MCF) (dendritic cells) |
| --- | --- | --- | --- | --- |
| LLFLTPMEV (listed as Homo sapiens) [SEQ ID NO: 3, CD19 9-mer fragment] | good and prolonged stable binding | – | – | – |
| SLFLGILSV (listed as Homo sapiens) [SEQ ID NO: 6, CD20 9-mer fragment] | good and prolonged stable binding | – | – | – |
| TLAYLIFCL (listed as Homo sapiens) [SEQ ID NO: 2, CD19 9-mer fragment] | good and prolonged stable binding | – | – | – |
| TNF-α | – | 107 | 96 | 475 |
| lipopolysaccharide [LPS, reference compound] | – | 71 | 40 | 316 |
